Laboratory results as given in US11317626B2, “Forchlorfenuron mixtures and uses thereof” (Valent BioSciences LLC, priority 2018, dated 2022).

What was measured:
Format in all cases: in vivo
[1] = tested on: Malus (apple) rootstocks; experiment: Example 4: bud break and shoot growth of Malus (apple) rootstocks
Procedure: (§1) To determine if the mixtures provided unexpected results, the observed combined efficacy (“OCE”) was divided by the expected combined efficacy (“ECE”) wherein the expected ECE is calculated by the Abbott method: ECE=A+B−(AB/100), • wherein ECE is the expected combined efficacy and in which A and B are the speed of bud break relative to control, the number of buds broken per plant relative to control, shoot length relative to control or shoot weight relative to control given by the single active ingredients. If the ratio between the OCE of the mixture and the ECE of the mixture is greater than 1, then greater than expected interactions are present in the mixture. (Gisi, Synergistic Interaction of Fungicides in Mixtures, The American Phytopathological Society, 86:11, 1273-1279,1996). Results
(§2) To assess the ability of mixtures of the invention to promote and synchronize bud break, these mixtures were applied to field-grown Malus (apple) rootstocks and examined for bud break (initiation of growth) and subsequent shoot development. Forchlorfenuron, Dormex (50% HC), 15-0-0 (Erger®) and 17-0-0 fertilizers (CAN17), and mixtures thereof were each applied individually or sequentially (co-applied) to the shoots of potted Malus rootstocks that were pruned to a height of 25 centimeters. Plants were evaluated for bud break at 28 days after treatment.

[2] = tested on: Concord grape vines; experiment: Example 1: bud break and shoot growth of potted Concord grape vines in greenhouse; conditions: for 0-50% BB: days from bud break on the first plant to 50% of the plants with bud break, synchrony
Text: An aqueous 50% hydrogen cyanamide solution (Sigma-Aldrich, St. Louis, Mo. USA) was used as the source of hydrogen cyanamide (“HC”). The commercial product, Dormex® contains 50% hydrogen cyanamide (w/v) in an aqueous base.
Erger® was used as the source of 15-0-0 fertilizer. Erger® contains 15% total nitrogen as 3.1% ammoniacal nitrogen, 5.8% nitrate nitrogen, 6.1% urea nitrogen and 3.3% calcium derived from a mixture of ammonium nitrate, calcium nitrate and urea. Erger® is always used in combination with either 20% (w/v) Ca(NO3)2 or Activ Erger®. In the following examples, 15-0-0 fertilizer was applied at a rate of 208,340 ppm calcium nitrate, 15,060 ppm nitrogen nitrate and 15,660 ppm urea or 239,060 ppm total.
CAN-17 was used as the 17-0-0 fertilizer. CAN-17 contains 17% total nitrogen as 4.6% ammonium nitrogen and 11.6% nitrate nitrogen and 1.3% urea nitrogen and 8.8% calcium derived from ammonium nitrate and calcium nitrate. CAN-17 is available from J. R. Simplot Company (Boise, Id., USA). In the following examples, 17-0-0 fertilizer was applied at a rate of 118,200 ppm calcium nitrate and 78,900 ppm nitrogen nitrate or 197,100 ppm total. See, Table 1 below, for ratios of forchlorfenuron (“CPPU”) to fertilizer that were used in the following examples.
To assess the ability of mixtures of the invention to promote and synchronize bud break these mixtures were applied to Concord grape vines and examined for bud break (initiation of growth) and subsequent shoot development. Specifically, dormant bare-rooted Concord grape vines were planted in pots containing Pro-Mix® BX potting soil (Pro-Mix is a registered trademark of and available from Premier Horticulture Ltd.) and pruned to five nodes on a single shoot of one-year-old wood. Nodes are regions on the shoot where leaves arise from the shoot and buds are present at the axis of the shoot:leaf interface. The bud found at the shoot:leaf interface develops into the vines new shoot growth. Aqueous solutions of forchlorfenuron, HC, 15-0-0 fertilizer, 17-0-0 fertilizer, and mixtures thereof were each applied individually or sequentially or co-applied to the first-year wood of separate Concord grape vines. Plants were grown in a heated greenhouse for 49 days and evaluated for percent of vines showing bud break, periodically between seven days after application and the conclusion of the experiment. Percent bud break is determined by the number of plants that have at least one bud broken divided by the total number of plants per treatment times 100. At 51 days after treatment (“DAT”), the plants were sacrificed and measured for total number of flower clusters, total new shoot length, longest new shoot, combined new shoot fresh weight. New shoot growth is the growth arising from the dormant buds not including the woody growth that was planted and gave rise to the new growth.
as §1

[3] = tested on: Concord grape vines; experiment: Example 2: Concord grape vines greenhouse, forchlorfenuron and 15-0-0 fertilizer (Erger) study
Text: (§3) To assess the ability of mixtures of the invention to promote and synchronize bud break these mixtures were applied to Concord grape vines and examined for bud break (initiation of growth) and subsequent shoot development. Specifically, dormant bare-rooted Concord grape vines were planted in pots containing Pro-Mix® BX potting soil (Pro-Mix is a registered trademark of and available from Premier Horticulture Ltd.) and pruned to five nodes on a single shoot of one-year-old wood. Nodes are regions on the shoot where leaves arise from the shoot and buds are present at the axis of the shoot:leaf interface. The bud found at the shoot:leaf interface develops into the vines new shoot growth. Aqueous solutions of forchlorfenuron, HC, 15-0-0 fertilizer, 17-0-0 fertilizer, and mixtures thereof were each applied individually or sequentially or co-applied to the first-year wood of separate Concord grape vines. […] Percent bud break is determined by the number of plants that have at least one bud broken divided by the total number of plants per treatment times 100. […] New shoot growth is the growth arising from the dormant buds not including the woody growth that was planted and gave rise to the new growth.
as §1
(§4) The experiment from Example 1 was repeated with varying quantities of forchlorfenuron and fertilizers in a greenhouse experiment.

[4] = tested on: Concord grape vines; experiment: Example 2: Concord grape vines greenhouse, forchlorfenuron and 17-0-0 fertilizer (CAN17) study
Text: as §3, §1, §4

[5] = tested on: Prunus (stone fruit) plants; experiment: Example 5: bud break and shoot growth of Prunus (stone fruit) plants in greenhouse
Procedure: as §1
as §2, with “Prunus (stone fruit) plants in the greenhouse” for “field-grown Malus (apple) rootstocks”, “Prunus plants.” for “potted Malus rootstocks that were pruned to a height of 25 centimeters.”

[6] = tested on: Flame seedless grape vines; experiment: Example 3: bud break on spurs of field-grown Flame seedless grape vines; conditions: 41 days post application
Procedure: as §1
as §2, with “Flame seedless grape vines in Thermal, Calif.,” for “Malus (apple) rootstocks”, “separate spurs” for “shoots”, “Flame seedless grape vines.” for “potted Malus rootstocks that were pruned to a height of 25 centimeters.”, “41” for “28”, “treatment. Results of these evaluations can be seen below in Tables 11 and 12.” for “treatment.”

[7] = days after treatment to 50% bud break
[8] = combined shoot fresh weight, 52 days after planting

Which “Fresh Weight at Harvest” value ([1]; combined new shoot growth, harvest at 28 days) does the source give for N#CN [1% HC (v/v), hydrogen cyanamide] here?
The value was 7.99 grams.

What about the “50% BB” value [1, 7] of the same compound?
The value was 12 days.

And the “Average Number of Broken Buds Per Malus Plant at Harvest” value ([1]; harvest at 28 days)?
Its value is 8.13.

And the “Fresh Weight per Bud at Harvest” value ([1]; harvest at 28 days)?
Its value is 0.98 grams.

What about the “Average Number of Broken Nodes Per Centimeter of Shoot at Harvest” value ([1]; harvest at 28 days, rootstocks pruned to 25 centimeters) of the same compound?
The value was 0.325.

And the “Percentage of Concord Grape Vines with Dormancy Relieved” value (“Percentage of Concord Grape Vines” for short) ([2]; 31 days after treatment, plants with at least one bud showing a green shoot emerging)?
Its value is 100%.

And the “Percentage of Concord Grape Vines” value ([2]; 34 days after treatment)?
The value was 100%.

And the “Percentage of Concord Grape Vines” value ([2]; 36 days after treatment)?
The value was 100%.

And the “Percentage of Concord Grape Vines” value ([2]; 38 days after treatment)?
The value was 100%.

And the “Percentage of Concord Grape Vines” value ([2]; 43 days after treatment)?
Its value is 100%.

What about the “Percentage of Concord Grape Vines” value ([2]; 45 days after treatment) of the same compound?
Its value is 100%.

What about the “Percentage of Concord Grape Vines” value ([2]; 51 days after treatment) of the same compound?
Its value is 100%.

And the “Broken Buds/Plant” value ([2]; 51 days post-treatment)?
Its value is 2.50.

What about the “FW/Broken Bud” value ([2]; 51 days post-treatment) of the same compound?
Its value is 11.18 grams.

And the FW/Plant ([2]; combined shoot fresh weight at 51 DAT)?
The FW/Plant was 27.95 grams.

And the “50% BB” value ([2]; days from application to 50% of the plants showing at least one bud broken)?
Its value is 15 days.

And the “0-50% BB” value [2]?
The value was 4 days.

What about the “0-50% BB” value ([2]; listed as 1% HC) of the same compound?
The value was “four”.

What about the “Fresh Weight at Harvest” value [3, 8] of the same compound?
Its value is 42.21 grams.

And the “50% BB” value [3, 7]?
The value was 17 days.

What about the “Average Number of Broken Nodes Per Plant at Harvest” value ([3]; harvest 52 days after planting) of the same compound?
The value was 2.13.

And the “Fresh Weight at Harvest” value [4, 8]?
The value was 37.01 grams.

What about the “50% BB” value [4, 7] of the same compound?
Its value is 17 days.

And the “Average Number of Broken Nodes Per Plant at Harvest” value ([4]; harvest 52 days after planting)?
The value was 2.38.

What about the “Fresh Weight at Harvest, FW” value ([5]; combined new shoot fresh weight, harvest at 28 days) of the same compound?
Its value is 4.76 grams.

What about the “50% BB” value [5, 7] of the same compound?
Its value is 7 days.

What about the “Broken Buds per Spur (OCE)” value [6] of the same compound?
Its value is 1.48.

What about the “Percentage of Spurs With At Least One Bud Broken (OCE)” value [6] of the same compound?
Its value is 72%.
